Test results taken from ChEMBL document CHEMBL1150098, “Makaluvamines H-M and damirone C from the pohnpeian sponge Zyzzya fuliginosa” (J Nat Prod, 1995).
The source made the active and inactive calls. No cut-off for these calls is given here.

Key:
HCT-116 = assay: Cytotoxicity against human HCT116 cells; format: functional, cell-based
[1] = biological target: DNA topoisomerase 2-alpha (Homo sapiens) (UniProt P11388); assay: Inhibition of DNA topoisomerase 2
Sequence of DNA topoisomerase 2-alpha (Homo sapiens) (P11388 whole entry): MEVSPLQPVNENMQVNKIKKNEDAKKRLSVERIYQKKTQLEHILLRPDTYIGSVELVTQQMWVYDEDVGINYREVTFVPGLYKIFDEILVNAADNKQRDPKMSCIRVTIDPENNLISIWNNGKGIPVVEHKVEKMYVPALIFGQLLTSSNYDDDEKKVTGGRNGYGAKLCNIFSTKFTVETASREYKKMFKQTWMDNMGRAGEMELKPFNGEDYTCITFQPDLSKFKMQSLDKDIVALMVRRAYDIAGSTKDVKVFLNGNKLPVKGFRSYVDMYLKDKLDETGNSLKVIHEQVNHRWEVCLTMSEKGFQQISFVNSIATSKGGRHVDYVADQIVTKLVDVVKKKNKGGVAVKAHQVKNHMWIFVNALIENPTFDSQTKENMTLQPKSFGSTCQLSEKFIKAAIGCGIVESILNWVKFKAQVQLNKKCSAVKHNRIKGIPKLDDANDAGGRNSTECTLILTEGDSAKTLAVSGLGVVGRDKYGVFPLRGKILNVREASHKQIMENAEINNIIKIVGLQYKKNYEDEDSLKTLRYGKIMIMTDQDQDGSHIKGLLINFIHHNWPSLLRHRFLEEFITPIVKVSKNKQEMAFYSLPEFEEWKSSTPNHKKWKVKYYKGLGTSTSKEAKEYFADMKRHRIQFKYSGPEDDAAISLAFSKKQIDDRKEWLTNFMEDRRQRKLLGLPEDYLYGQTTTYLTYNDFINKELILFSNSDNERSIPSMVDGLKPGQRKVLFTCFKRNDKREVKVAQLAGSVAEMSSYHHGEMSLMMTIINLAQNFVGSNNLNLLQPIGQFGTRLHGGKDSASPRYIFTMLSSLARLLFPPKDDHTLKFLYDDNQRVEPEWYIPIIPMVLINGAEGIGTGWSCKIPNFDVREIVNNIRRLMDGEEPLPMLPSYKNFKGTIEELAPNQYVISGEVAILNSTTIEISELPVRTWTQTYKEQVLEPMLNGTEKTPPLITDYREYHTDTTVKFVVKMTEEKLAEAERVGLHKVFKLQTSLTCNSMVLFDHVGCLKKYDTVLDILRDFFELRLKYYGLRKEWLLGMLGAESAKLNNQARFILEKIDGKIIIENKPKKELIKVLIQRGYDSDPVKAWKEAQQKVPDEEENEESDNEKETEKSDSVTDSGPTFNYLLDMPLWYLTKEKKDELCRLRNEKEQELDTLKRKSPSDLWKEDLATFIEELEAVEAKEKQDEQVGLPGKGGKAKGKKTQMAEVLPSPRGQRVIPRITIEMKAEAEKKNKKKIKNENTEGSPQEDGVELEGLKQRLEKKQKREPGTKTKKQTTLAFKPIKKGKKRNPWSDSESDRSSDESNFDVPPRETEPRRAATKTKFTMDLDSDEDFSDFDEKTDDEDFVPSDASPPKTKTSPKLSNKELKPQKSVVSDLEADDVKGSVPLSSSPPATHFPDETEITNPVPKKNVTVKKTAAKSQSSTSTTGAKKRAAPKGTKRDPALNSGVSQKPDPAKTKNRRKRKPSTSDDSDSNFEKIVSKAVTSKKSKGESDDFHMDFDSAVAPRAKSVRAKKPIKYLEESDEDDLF

| SMILES | Activity (HCT-116) | Activity [1] |
| --- | --- | --- |
| Cn1cc2c3c1C(=O)C(N/C=C/c1ccc(O)cc1)=CC3=[N+](C)CC2 | Active | inactive |
| Cn1cc2c3c1C(=O)C(N)=CC3=[N+](C)CC2 | Active | inactive |
| O=C1C(NC2Cc3cc(Br)c(O)cc3S2)=CC2=NCCc3c[nH]c1c32 (stereo not drawn) | Active | Active |
| NC1=CC2=NCCc3c[nH]c(c32)C1=O | Active |  |
| C[N+]1=C2C=C(N)C(=O)c3[nH]cc(c32)CC1 | Active | Active |
| Cn1cc2c3c1C(=O)C(N/C=C/c1ccc(O)cc1)=CC3=NCC2 | Active | Active |
| C[N+]1=C2C=C(NCCc3ccc(O)cc3)C(=O)c3[nH]cc(c32)CC1 | Active | inactive |
| O=C1C(N/C=C/c2ccc(O)cc2)=CC2=NCCc3c[nH]c1c32 | Active | inactive |
| Cn1cc2c3c1C(=O)C(NCCc1ccc(O)cc1)=CC3=NCC2 | Active | inactive |
| C[N+]1=C2C=C(N/C=C/c3ccc(O)cc3)C(=O)c3[nH]cc(c32)CC1 | Active | inactive |
| Cn1cc2c3c1C(=O)C(N)=CC3=NCC2 | Active | Active |
| O=C1C(NCCc2ccc(O)cc2)=CC2=NCCc3c[nH]c1c32 | Active | inactive |
